# Measured values published in ChEMBL document CHEMBL1140743, “2-Oxotetrahydroquinoline-based antimalarials with high potency and metabolic stability” (J Med Chem, 2008).
# Assays:
# Plasmodium falciparum [1] = assay: Displacement of [3H]farnesylpyrophosphate from Plasmodium falciparum protein farnesyltransferase at 5 nM by scintillation proximity assay
# Plasmodium falciparum [2] = assay: Antimalarial activity against chloroquine-resistant, pyrimethamine-resistant Plasmodium falciparum K1 in human red cells; type: functional; details: read-out: ED50 (the source's name)
# [3] = (§1) Metabolic stability assessed as half life in mouse liver microsomes; type: ADME, Microsome; details: liver microsomes
# Plasmodium falciparum [4] = assay: Displacement of [3H]farnesylpyrophosphate from Plasmodium falciparum protein farnesyltransferase at 0.5 nM by scintillation proximity assay
# Plasmodium falciparum [5] = assay: Antimalarial activity against chloroquine-sensitive Plasmodium falciparum 3D7 in human red cells; type: functional; details: read-out: ED50 (the source's name)
# Plasmodium falciparum [6] = assay: Displacement of [3H]farnesylpyrophosphate from Plasmodium falciparum protein farnesyltransferase at 50 nM by scintillation proximity assay
# Rattus norvegicus [7] = species: Rattus norvegicus; assay: Inhibition of rat protein farnesyltransferase at 5 nM
# Rattus norvegicus [8] = species: Rattus norvegicus; assay: Inhibition of rat protein farnesyltransferase at 50 nM
# Rattus norvegicus [9] = species: Rattus norvegicus; assay: Inhibition of rat protein farnesyltransferase at 500 nM
# Rattus norvegicus [10] = species: Rattus norvegicus; assay: Inhibition of rat protein farnesyltransferase at 5000 nM
# Liver = assay: as §1; type: ADME, Microsome; details: microsomes
# [11] = Inhibition of Plasmodium falciparum PFT
# Plasmodium falciparum [12] = assay: Antimalarial activity against Plasmodium falciparum in human red cells; type: functional; details: read-out: ED50 (the source's name)
SMILES,inhibition (Plasmodium falciparum [1]),EC50 (Plasmodium falciparum [2]),half-life [3],inhibition (Plasmodium falciparum [4]),EC50 (Plasmodium falciparum [5]),inhibition (Plasmodium falciparum [6]),inhibition (Rattus norvegicus [7]),inhibition (Rattus norvegicus [8]),inhibition (Rattus norvegicus [9]),inhibition (Rattus norvegicus [10]),t1/2 (Liver),IC50 [11],EC50 (Plasmodium falciparum [12])
Cn1cnc(S(=O)(=O)N(Cc2ccc(C#N)cc2)C2Cc3cc(C#N)ccc3N(Cc3cncn3C)C2=O)c1 (configuration not stated),56%,2100 nM,40 min,26%,2100 nM,91%,,,,,,,
Cn1cnc(S(=O)(=O)N(Cc2ccc(S(C)(=O)=O)cc2)C2Cc3cc(Br)ccc3N(Cc3cncn3C)C2=O)c1 (configuration not stated),26%,,,0%,850 nM,86%,0%,0%,0%,56%,,,
Cn1cnc(S(=O)(=O)N(Cc2ccc(C(F)(F)F)o2)C2Cc3cc(C#N)ccc3N(Cc3cncn3C)C2=O)c1 (configuration not stated),67%,325 nM,,1%,625 nM,92%,,,,,,,
Cn1cnc(S(=O)(=O)N(Cc2ccc(F)cc2F)C2Cc3cc(C#N)ccc3N(Cc3cncn3C)C2=O)c1 (configuration not stated),27%,,,4%,,80%,,,,,,,
Cn1cnc(S(=O)(=O)N(CC(=O)OC(C)(C)C)C2Cc3cc(C#N)ccc3N(Cc3cncn3C)C2=O)c1 (configuration not stated),97%,30 nM,21 min,62%,35 nM,100%,0%,23%,75%,92%,,,
Cn1cnc(S(=O)(=O)N(Cc2ccc(C#N)cc2)C2Cc3cc(C#N)ccc3N(Cc3cncn3C)C2)c1 (configuration not stated),,,3 min,,,,,,,,,,
Cn1cnc(S(=O)(=O)N(CC(=O)NC(C)(C)C)C2Cc3cc(Br)ccc3N(Cc3cncn3C)C2=O)c1 (configuration not stated),81%,,,24%,105 nM,98%,,,,,,,
Cn1cnc(S(=O)(=O)N(Cc2ccccc2F)C2Cc3cc(C#N)ccc3N(Cc3cncn3C)C2=O)c1 (configuration not stated),71%,,,33%,800 nM,97%,,,,,,,
Cn1cncc1CN1C(=O)C(NS(=O)(=O)c2ccccn2)Cc2cc(Br)ccc21 (configuration not stated),15%,5000 nM,,0%,5000 nM,36%,,,,,,,
Cn1cnc(S(=O)(=O)N(Cc2ccc(S(C)(=O)=O)cc2)C2Cc3cc(C#N)ccc3N(Cc3cncn3C)C2=O)c1 (configuration not stated),91%,,133 min,23%,80 nM,99%,0%,0%,23%,73%,,,
C=C(C)CN(C1Cc2cc(C#N)ccc2N(Cc2cncn2C)C1=O)S(=O)(=O)c1cn(C)cn1 (configuration not stated),41%,2000 nM,,4%,3200 nM,86%,,,,,,,
Cn1cnc(S(=O)(=O)N(Cc2ccc(-n3cccn3)cc2)C2Cc3cc(C#N)ccc3N(Cc3cncn3C)C2=O)c1 (configuration not stated),97%,150 nM,9 min,50%,80 nM,100%,0%,4%,54%,84%,,,
Cn1cnc(S(=O)(=O)N(CC(=O)OC(C)(C)C)C2Cc3cc(C#N)ccc3N(Cc3cncn3C)C2)c1 (configuration not stated),,,10 min,,,,,,,,,,
Cn1cnc(S(=O)(=O)N(CC(=O)NC(C)(C)C)C2Cc3cc(C#N)ccc3N(Cc3cncn3C)C2=O)c1 (configuration not stated),86%,100 nM,144 min,25%,200 nM,98%,0%,0%,62%,86%,,,
COC(=O)C1CCC(CN(C2Cc3cc(C#N)ccc3N(Cc3cncn3C)C2=O)S(=O)(=O)c2cn(C)cn2)CC1 (configuration not stated),83%,,,21%,105 nM,98%,,,,,,,
Cn1cncc1CN1C(=O)C(N(Cc2ccc(S(C)(=O)=O)cc2)S(=O)(=O)c2ccccn2)Cc2cc(C#N)ccc21 (configuration not stated),60%,275 nM,,15%,1700 nM,91%,,,,,,,
Cn1cnc(S(=O)(=O)N(C(CC(=O)OC(C)(C)C)C(=O)OC(C)(C)C)C2Cc3cc(C#N)ccc3N(Cc3cncn3C)C2=O)c1 (configuration not stated),0%,5000 nM,,0%,5000 nM,0%,,,,,,,
Cn1cncc1CN1C(=O)C(N(CC(=O)NC(C)(C)C)S(=O)(=O)c2cccc(F)c2)Cc2cc(C#N)ccc21 (configuration not stated),19%,,31 min,0%,3600 nM,56%,,,,,,,
Cc1c(S(=O)(=O)N(CC(=O)NC(C)(C)C)C2Cc3cc(C#N)ccc3N(Cc3cncn3C)C2=O)ncn1C (configuration not stated),11%,5000 nM,,6%,5000 nM,24%,,,,,,,
Cn1cnc(S(=O)(=O)NC2Cc3cc(C#N)ccc3N(Cc3cncn3C)C2=O)c1 (configuration not stated),41%,,,0%,,79%,,,,,,,
Cn1cncc1CN1C(=O)C(N(CC(=O)NC(C)(C)C)S(=O)(=O)c2ccc3c(c2)OCCCO3)Cc2cc(C#N)ccc21 (configuration not stated),4%,,,0%,5000 nM,22%,,,,,,,
Cn1cnc(S(=O)(=O)N(Cc2ccccc2)C2Cc3cc(C#N)ccc3N(Cc3cncn3C)C2=O)c1 (configuration not stated),88%,100 nM,,45%,175 nM,98%,0%,0%,5%,61%,,,
Cn1cnc(S(=O)(=O)N(CC(=O)NC(C)(C)C)C2Cc3cc(C#N)ccc3N(Cc3cncn3C)C2)c1 (configuration not stated),,,17 min,,,,,,,,,,
Cc1ccccc1CN(C1Cc2cc(C#N)ccc2N(Cc2cncn2C)C1=O)S(=O)(=O)c1cn(C)cn1 (configuration not stated),12%,5000 nM,,9%,5000 nM,45%,,,,,,,
Cn1cnc(S(=O)(=O)N(Cc2ccc(S(C)(=O)=O)cc2)C2Cc3cc(C#N)ccc3N(Cc3cncn3C)C2)c1 (configuration not stated),,,,,,,,,,,16 min,,
COC(=O)N1CCC(CN(C2Cc3cc(C#N)ccc3N(Cc3cncn3C)C2)S(=O)(=O)c2ccccn2)CC1 (configuration not stated),,,,,,,,,,,,0.5 nM,15 nM
Cn1cnc(S(=O)(=O)NC2Cc3cc(Br)ccc3N(Cc3cncn3C)C2=O)c1 (configuration not stated),15%,3000 nM,,5%,5000 nM,60%,,,,,,,
Cn1cnc(S(=O)(=O)N(CC(=O)c2ccsc2)C2Cc3cc(C#N)ccc3N(Cc3cncn3C)C2=O)c1 (configuration not stated),79%,,,26%,,98%,,,,,,,
Cn1cnc(S(=O)(=O)N(Cc2ccccn2)C2Cc3cc(C#N)ccc3N(Cc3cncn3C)C2=O)c1 (configuration not stated),5%,,,0%,5000 nM,8%,,,,,,,
